This note sets out measurements from patent publication US6913748B2, “Cross-linkers with high reactivity and solubility and their use in the preparation of conjugates for targeted delivery of small molecule drugs” (Immunogen, Inc., priority 2002, dated 2005).

Series [1] is described as follows: SEC analysis of conjugate (monomer, dimer, trimer, higher molecular weight aggregates). The series is classed as physicochemical. Particulars: N901-DM1 conjugate; conjugation at pH 7.4, 2 hours, 1.7-fold DM1. The method, then:
(§1) The increased efficiency of conjugation using the SSNPP linker is accomplished without compromise in the monomeric character of the conjugate and in the amount of unconjugated (free) drug associated with the antibody conjugate. SEC analysis is used to determine the amount of monomer, dimer, trimer, or higher molecular weight aggregates. The level of unconjugated drug was measured by reverse phase HPLC analysis of the conjugate sample. The percent free drug for either reaction was less than 2%. In addition, shorter conjugation reaction times are possible with SSNPP compared with SPP (5), which may decrease loss of some antibodies that are sensitive to prolonged exposure to organic solvent required in the conjugation reaction. Shorter reaction times should also decrease drug loss due to DM1 dimerization, which is a competing side reaction during conjugation. The resulting increases in yield and reduced side reactions should further contribute to reduced DM1 requirements.
On the technique in general: In gel filtration, larger molecules generally elute earlier.

A further series relates to N901 antibody with DM1. Nature of the series: Conjugation (disulfide exchange) of linker-modified N901 antibody with DM1. Set-up: species or system murine. The settings on record: pH 7.4; 1.1-fold molar excess of DM1 per linker; compared with SPP-modified antibody. The method, then: SPP or SSNPP linker was dissolved in ethanol at a concentration of approximately 10 mM. Antibody was dialyzed into buffer A (50 mM KPi, 50 mM NaCl, 2 mM EDTA, pH 6.5). For the linker reaction, the antibody was at 8 mg/ml, and 7 equivalents of linker were added while stirring in the presence of 5% (v/v) ethanol. The reaction was allowed to proceed at ambient temperature for 90 minutes. Unreacted linker was removed from the antibody by Sephadex G25 gel filtration using a Sephadex G25 column equilibrated with Buffer A at pH 6.5 or 150 mM potassium phosphate buffer containing 100 mM NaCl, pH 7.4 as indicated. For the SPP linker, the extent of modification was assessed by release of pyridine-2-thione using 50 mM DTT and measuring the absorbance at 343 nm as described below (ε343=8080 M^−1 cm^−1 for free pyridine-2-thione). For SSNPP, modification was assessed directly by measuring the absorbance at 325 nm (ε325=10,964 M^−1 cm^−1 for the 4-nitropyridyl-2-dithio group linked to antibody). […] For DML, the extent of drug conjugation to antibody was assessed by measuring A252 and A280 of the conjugate as described below. […]
Calculating Ab and DM1 component concentrations of Ab-DM1. […] The components are quantified using the following algebraic expressions which account for the contribution of each component at each wavelength (CAb is the molar concentration of Ab and CD is the molar concentration of DM1): […]

Series [2] can be described thus: Unconjugated (free) drug by reverse phase HPLC analysis of the conjugate sample. The settings on record: N901-DM1 conjugate, 1.7-fold DM1. The method, then:
as §1

Series [3] can be described thus: Solubility of cross-linkers in water / aqueous solutions. The series is classed as physicochemical.

On to `CC(CCC(=O)ON1C(=O)CC(S(=O)(=O)O)C1=O)SSc1ccc([N+](=O)[O-])cn1` (centres unmarked) [SSNPP, N-Sulfosuccinimidyl 4-(5-nitro-2-pyridyldithio)-pentanoate], for which, in series [1], the “SEC Analysis Dimer” value came out at 6.3%, the “SEC Analysis HMW” value was 0.1%, the “SEC Analysis Monomer” value is reported as 91.9% and the “SEC Analysis Trimer” value was 0.6%. Moreover, the “time course of the reaction of DM1 with modified antibody (FIG. 8)” value in the series on N901 antibody with DM1 was “considerably faster”. In addition, in series [2] (conjugation at pH 6.5, 2 hours), the “% free drug” value amounted to 0.9%. Besides, the “% free drug” value in series [2] (conjugation at pH 7.4, 2 hours) worked out at 0.8%. For the same molecule, the “solubility in water / aqueous solutions” value in series [3] is on record as “highly water-soluble”.

For `CC(CCC(=O)ON1C(=O)CCC1=O)SSc1ccccn1` (centres unmarked) [SPP, reference compound], in series [1], the “SEC Analysis Dimer” value worked out at 4.9%, the “SEC Analysis HMW” value was found to be 0.2%, the “SEC Analysis Monomer” value was found to be 93.6% and the “SEC Analysis Trimer” value was determined as 0.4%. In addition, the “% free drug” value in series [2] (conjugation at pH 6.5, 2 hours) is reported as 1.9%. In addition, the “% free drug” value in series [2] (conjugation at pH 7.4, 2 hours) is 1.8%.
